Converted amounts (≈) assume the structure as drawn. “And” between values parts separate entries of the source, which are not always exact repeats. Identical values can stand only once. Like-named read-outs stand apart in the source and are kept apart here.
Assays:
[1] = molecular target: Epithelial Cell Kinase (ECK) (Homo sapiens, UniProt P29317); test: Inhibition of Epithelial Cell Kinase (ECK), immobilized biotinylated peptide, HRP anti-phosphotyrosine readout; format: biochemical; conditions: IC50, substrate phosphorylation
Protocol: In this standard pharmacological test procedure, a biotinylated peptide substrate is first immobilized on neutravidin-coated microtiter plates. The test drug, the Epithelial Cell Kinase (ECK), Mg^++, sodium vanadate (a protein tyrosine phosphatase inhibitor), and an appropriate buffer to maintain pH (7.2) are then added to the immobilized substrate-containing microtiter wells. ATP is then added to initiate phosphorylation. After incubation, the assay plates are washed with a suitable buffer leaving behind phosphorylated peptide which is exposed to horse radish peroxidase (HRP)-conjugated anti-phosphotyrosine monoclonal antibody. The antibody-treated plates are washed again and the HRP activity in individual wells is quantified as a reflection of degree of substrate phosphorylation. […] Multiple entries for a given compound indication it was tested multiple times.

[2] = molecular target: T1, Kinase insert Domain containing Receptor (KDR: the catalytic domain of the VEGF receptor) (Homo sapiens, UniProt P35968); test: Inhibition of Kinase insert Domain containing Receptor (KDR), radioactive phosphorylation of Glu:Tyr copolymer; format: biochemical; conditions: IC50, substrate phosphorylation
T1 construct: KDR: the catalytic domain of the VEGF receptor
Protocol: In this standard pharmacological test procedure, KDR protein is mixed, in the presence or absence of a inhibitor compound, with a substrate peptide to be phosphorylated (a copolymer of glutamic acid and tyrosine, E:Y :: 4:1) and other cofactors such as Mg^++ and sodium vanadate (a protein tyrosine phosphatase inhibitor) in an appropriate buffer to maintain pH (7.2). ATP and a radioactive tracer (either P^32- or P^33- labeled ATP) is then add to initiate phosphorylation. After incubation, the radioactive phosphate associated with the acid-insoluble fraction of the assay mixture is then quantified as reflection of substrate phosphorylation. […] Multiple entries for a given compound indication it was tested multiple times.

A431 = test: Inhibition of Cancer Cell Growth as Measured by Cell Number (Sulforhodamine B); format: cell-based, Human; conditions: 48 hours exposure; for IC50: Homo sapiens, A-431, 48 h
Protocol: (§1) Human tumor cell lines were plated in 96-well plates (250 µl/well, 1-6 x 10^4 cells/ml) in RPMI 1640 medium, containing 5% FBS (Fetal Bovine Serum). […] After 48 hours exposure to test compounds, cells were fixed with trichloroacetic acid, and stained with Sulforhodamine B. After washing with trichloroacetic acid, bound dye was solubilized in 10 mM Tris base and optical density was determined using plate reader. Under conditions of the assay the optical density is proportional to the number of cells in the well. […] The test procedure is described in details by Philip Skehan et. al, J.Natl. Canc. Inst., 82, 1107-1112 (1990). […] Information about some of the cell lines used in these test procedures is available from the American Type Tissue Collection: Cell Lines and Hybridomas, 1994 Reference Guide, 8th Edition.

MDA-MB-435 = test: as above; format: cell-based, Human; conditions: 48 hours exposure; for IC50: Homo sapiens, MDA-MB-435, 48 h
Protocol: as §1

SK-BR3 = test: as above; format: cell-based, Human; conditions: 48 hours exposure; for IC50: Homo sapiens, SK-BR-3, 48 h
Protocol: as §1

SW620 = test: as above; format: cell-based, Human; conditions: 48 hours exposure; for IC50: Homo sapiens, SW-620, 48 h
Protocol: as §1

3T3/c-erbb2 = test: as above; format: cell-based; conditions: 48 hours exposure
Protocol: as §1

3T3 = test: as above; format: cell-based; conditions: 48 hours exposure; for IC50: Mus musculus, NIH3T3
Protocol: as §1

[3] = molecular target: T2, epidermal growth factor receptor kinase (EGF-R Kinase, recombinant enzyme; His-tagged cytoplasmic domain of EGFR) (Homo sapiens, UniProt P00533); test: Inhibition of Epidermal Growth Factor Receptor Kinase (EGF-R) using recombinant enzyme, RR-SRC peptide phosphorylation, 33P-ATP; format: biochemical; conditions: for inhibition at 0.5 µM: read-out: %Inh @ 0.5 µM; for IC50: recombinant enzyme, 90 min at room temperature
T2 construct: EGFR cDNA encoding amino acids 645 - 1186 preceded by Met-Ala-(His)6; Met-Ala-(His)6 (N); made in house; host or cells: Sf9 insect cells, recombinant baculovirus vHcEGFR52
Protocol: Representative test compounds were evaluated for their ability to inhibit the phosphorylation of the tyrosine residue of a peptide substrate catalyzed by the enzyme epidermal growth factor receptor kinase. The peptide substrate (RR-SRC) has the sequence arg-arg-leu-ile-glu-asp-ala-glu-tyr-ala-ala-arg-gly. The enzyme used in this test procedure is the His-tagged cytoplasmic domain of EGFR. A recombinant baculovirus (vHcEGFR52) was constructed containing the EGFR cDNA encoding amino acids 645 - 1186 preceded by Met-Ala-(His)6. Sf9 cells in 100 mm plates were infected at an moi of 10 pfu/cell and cells were harvested 48 h post infection. A cytoplasmic extract was prepared using 1% Triton X-100 and applied to Ni-NTA column. After washing the column with 20 mM imidazole, HcEGFR was eluted with 250 mM imidazole (in 50 mM Na2HPO4, pH 8.0, 300 mM NaCl). Fractions collected were dialyzed against 10 mM HEPES, pH 7.0, 50 mM NaCl, 10% glycerol, lug/mL antipain and leupeptin and 0.1 mM Pefabloc SC. The protein was frozen in dry ice/methanol and stored -70°C.
Test compounds were made into 10 mg/mL stock solutions in 100% dimethylsulfoxide (DMSO). Prior to experiment, stock solutions were diluted to 500 uM with 100% DMSO and then serially diluted to the desired concentration with HEPES buffer (30 mM HEPES pH 7.4).
For the enzyme reaction, 10 uL of each inhibitor (at various concentrations) were added to each well of a 96-well plate. To this was added 3 uL of enzyme (1:10 dilution in 10mM HEPES, pH 7.4 for final cone. of 1:120). This was allowed to sit for 10 min on ice and was followed by the addition of 5 ul peptide (80 uM final cone.), 10ul of 4X Buffer (Table A), 0.25 uL ^33P-ATP and 12 uL H2O. The reaction was allowed to run for 90 min at room temperature and was followed by spotting the entire volume on to precut P81 filter papers. The filter discs were washed 2X with 0.5% phosphoric acid and radioactivity was measured using a liquid scintillation counter.
The inhibition data for representative compounds of the invention are shown below in TABLE 1. […] The % inhibition of the test compound was determined for at least three different concentrations and the IC50 value was evaluated from the dose response curve. […] CPM(control) is in units of counts per minute and was a number expressing the amount of radiolabled ATP (γ-^33P) incorporated into the RR-SRC peptide substrate by the enzyme after 90 minutes at room temperature in the absence of test compound as measured by liquid scintillation counting. The CPM values were corrected for the background counts produced by ATP in the absence of the enzymatic reaction. […]

[4] = molecular target: Recombinant human MEK 1 (MAPKK) / recombinant human ERK2 (MAPK) (Mek-Erk) (Homo sapiens, UniProt P28482+Q02750); test: Mitogen Activated Protein Kinase (MAPK) assay, two component coupled Mek-Erk test; format: biochemical
Sequence of Recombinant human MEK 1 (MAPKK) / recombinant human ERK2 (MAPK) (Mek-Erk) (P28482 2-360): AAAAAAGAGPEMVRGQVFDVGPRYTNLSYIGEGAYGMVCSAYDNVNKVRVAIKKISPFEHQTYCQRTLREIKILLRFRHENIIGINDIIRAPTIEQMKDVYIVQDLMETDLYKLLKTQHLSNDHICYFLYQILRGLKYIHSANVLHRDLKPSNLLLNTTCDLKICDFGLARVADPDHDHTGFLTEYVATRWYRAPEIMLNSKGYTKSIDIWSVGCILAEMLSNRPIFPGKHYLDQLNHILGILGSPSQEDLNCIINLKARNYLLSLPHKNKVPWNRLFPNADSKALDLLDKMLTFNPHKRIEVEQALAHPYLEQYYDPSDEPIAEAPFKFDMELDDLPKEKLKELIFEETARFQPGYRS
Sequence of Recombinant human MEK 1 (MAPKK) / recombinant human ERK2 (MAPK) (Mek-Erk) (Q02750 whole entry): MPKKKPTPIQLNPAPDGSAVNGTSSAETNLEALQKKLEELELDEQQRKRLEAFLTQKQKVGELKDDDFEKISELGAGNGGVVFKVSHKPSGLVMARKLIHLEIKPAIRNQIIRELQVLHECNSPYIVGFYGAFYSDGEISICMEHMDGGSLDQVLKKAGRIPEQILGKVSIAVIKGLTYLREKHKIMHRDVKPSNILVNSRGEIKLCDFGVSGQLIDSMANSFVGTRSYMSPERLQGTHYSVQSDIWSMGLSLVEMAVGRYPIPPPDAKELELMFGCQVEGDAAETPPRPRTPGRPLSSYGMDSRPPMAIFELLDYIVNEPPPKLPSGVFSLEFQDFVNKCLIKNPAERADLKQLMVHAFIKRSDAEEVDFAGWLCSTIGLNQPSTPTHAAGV
Protocol: To evaluate inhibitors of the MAP (mitogen activated protein) kinase a two component coupled standard pharmacological test procedure, which measures phosphorylation of a serine/threonine residue in an appropriate sequence in the substrate in the presence and absence of a putative inhibitor, was used. Recombinant human MEK 1 (MAPKK) was first used to activate recombinant human ERK2 (MAPK) and the activated MAPK (ERK) was incubated with substrate (MBP peptide or MYC peptide) in the presence of ATP, Mg^+2 and radiolabeled ^33P ATP. The phosphorylated peptide was captured on a P 81 phosphocellulose filter (paper filter or embedded in microtiter plate) washed and counted by scintillation methods.
The peptide substrates used in the assay are MBP, peptide substrate ([sequence]), or synthetic Myc substrate, ([sequence]•5 TFA. The recombinant enzymes used were prepared as GST fusion proteins of human ERK 2 and human MEK 1. Inhibitor samples were prepared as 10X stocks in 10% DMSO and an appropriate aliquot was used to deliver either 10 ug/ml for a single point screening dose or 100, 10, 1, and 0.1 uM final concentration for a dose response curve. Final DMSO concentrations were less than or equal to 1%.
The reaction was run as follows in 50 mM Tris kinase buffer, pH 7.4 in a reaction volume of 50 ul. The appropriate volume of kinase buffer and inhibitor sample was added to the tube. Appropriate dilution of enzyme was delivered to give 2-5 ug recombinant MAPK (Erk ) per tube. The inhibitor was incubated with MAPK (Erk) for 30 min at 0° C. Recombinant Mek (MAPKK) ( 0.5-2.5 ug) or fully activated Mek (0.05-0.1 units) was added to activate the Erk and incubated for 30 min at 30° C. Then substrate and gamma ^33P ATP was were added to give a final concentration of 0.5- 1 mM MBPP or 250-500 uM Myc; 0.2-0.5 uCi gamma P 33 ATP/tube; 50 µM ATP final concentration. Samples were incubated at 30°C for 30 minutes and the reaction was stopped by adding 25 µl of ice cold 10 %TCA .After samples were chilled on ice for 30 min, 20 µl of sample was transferred onto P 81 phosphocellulose filter paper or appropriate MTP with embedded P 81 filter. Filter papers or MTP were washed 2 times with a large volume of 1% acetic acid, then 2 times with water. The filters or MTP were briefly air dried before addition of scintillant and samples were counted in the appropriate scintillation counter set up for reading ^33P isotope.
The raw data was captured as cpm. Sample replicates were averaged and corrected for background count. Mean cpm data was tabulated by group and % inhibition by a test compound was calculated as (corrected cpm control- corrected. cpm sample/control) X 100 = % inhibition.

T1 sequence (P35968 834-1162 limits assumed): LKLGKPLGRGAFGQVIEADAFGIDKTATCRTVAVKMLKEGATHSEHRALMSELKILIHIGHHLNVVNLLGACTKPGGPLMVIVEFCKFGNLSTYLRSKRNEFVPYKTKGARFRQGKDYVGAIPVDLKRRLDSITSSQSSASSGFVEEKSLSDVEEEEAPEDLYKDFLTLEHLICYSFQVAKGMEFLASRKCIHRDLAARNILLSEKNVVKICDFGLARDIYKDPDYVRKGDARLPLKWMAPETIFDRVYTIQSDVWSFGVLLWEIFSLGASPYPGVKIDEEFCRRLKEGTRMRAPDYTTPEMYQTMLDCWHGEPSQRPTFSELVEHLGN
T2 sequence (P00533 669-1210): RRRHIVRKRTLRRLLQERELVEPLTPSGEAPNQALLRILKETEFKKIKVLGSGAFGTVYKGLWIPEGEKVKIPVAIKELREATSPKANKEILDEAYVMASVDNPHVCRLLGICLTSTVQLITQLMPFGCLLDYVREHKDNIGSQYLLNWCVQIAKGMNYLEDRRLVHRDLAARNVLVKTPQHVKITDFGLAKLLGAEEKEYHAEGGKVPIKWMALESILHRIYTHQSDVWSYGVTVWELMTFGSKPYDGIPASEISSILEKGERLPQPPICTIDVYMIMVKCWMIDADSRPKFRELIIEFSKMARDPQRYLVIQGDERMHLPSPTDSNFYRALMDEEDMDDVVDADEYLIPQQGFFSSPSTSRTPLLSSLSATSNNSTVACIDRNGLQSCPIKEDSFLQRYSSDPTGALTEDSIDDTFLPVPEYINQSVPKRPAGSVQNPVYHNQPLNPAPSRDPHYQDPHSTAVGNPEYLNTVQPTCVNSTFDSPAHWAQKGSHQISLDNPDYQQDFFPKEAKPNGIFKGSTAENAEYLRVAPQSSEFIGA
Sequence of Epithelial Cell Kinase (ECK) (P29317 24-976, species assumed): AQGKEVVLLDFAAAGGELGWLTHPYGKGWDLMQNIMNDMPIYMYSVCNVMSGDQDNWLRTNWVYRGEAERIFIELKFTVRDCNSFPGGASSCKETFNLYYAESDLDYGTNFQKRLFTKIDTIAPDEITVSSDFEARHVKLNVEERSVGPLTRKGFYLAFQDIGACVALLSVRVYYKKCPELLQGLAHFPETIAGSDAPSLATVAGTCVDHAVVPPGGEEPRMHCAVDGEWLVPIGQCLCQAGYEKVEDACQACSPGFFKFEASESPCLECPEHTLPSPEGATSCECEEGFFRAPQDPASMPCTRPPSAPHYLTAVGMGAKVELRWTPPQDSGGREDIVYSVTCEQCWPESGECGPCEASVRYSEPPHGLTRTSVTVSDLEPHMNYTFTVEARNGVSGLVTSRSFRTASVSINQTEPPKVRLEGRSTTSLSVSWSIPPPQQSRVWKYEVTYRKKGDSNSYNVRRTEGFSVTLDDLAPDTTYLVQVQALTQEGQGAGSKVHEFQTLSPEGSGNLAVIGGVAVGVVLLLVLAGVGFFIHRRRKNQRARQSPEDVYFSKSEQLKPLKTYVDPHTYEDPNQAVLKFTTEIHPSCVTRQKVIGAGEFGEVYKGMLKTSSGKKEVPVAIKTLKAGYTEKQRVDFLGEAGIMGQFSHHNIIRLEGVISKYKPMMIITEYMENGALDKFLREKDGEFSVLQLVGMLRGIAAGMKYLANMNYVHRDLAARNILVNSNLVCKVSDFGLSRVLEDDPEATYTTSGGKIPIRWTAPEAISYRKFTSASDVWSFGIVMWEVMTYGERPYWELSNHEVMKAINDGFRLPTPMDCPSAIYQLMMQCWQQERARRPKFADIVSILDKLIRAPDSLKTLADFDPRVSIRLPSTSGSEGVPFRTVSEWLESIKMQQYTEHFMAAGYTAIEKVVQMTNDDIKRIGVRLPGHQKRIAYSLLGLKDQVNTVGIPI

Compound | IC50 [1] [µM] | IC50 [2] | inhibition at 0.5 µM [3] [%] | IC50 [3] [µM] | IC50 ([4]; read-out: Mek-Erk) | also measured
4-(2,3-Dihydro-benzo[1,4]dioxin-6-ylamino)-6,7-diethoxy-quinoline-3-carbonitrile [Example 105] | > 51.1 | 76.6 µM | – | – | – | IC50 µg/mL A431 (A431): 0.270 µg/mL; IC50 µg/mL MDA-MB-435 (MDA-MB-435): 0.235 µg/mL; IC50 µg/mL SK-BR3 (SK-BR3): 0.281 µg/mL; IC50 µg/mL SW620 (SW620): 0.411 µg/mL; IC50 µg/mL 3T3/c-erbb2 (3T3/c-erbb2): 0.375 µg/mL; IC50 µg/mL 3T3 (3T3): 0.853 µg/mL
COCCOc1cc2ncc(C#N)c(Nc3ccc4cn[nH]c4c3)c2cc1OCCOC [Example 106, 4-(1H-Indazol-6-ylamino)-6,7-bis-(2-methoxy-ethoxy)-quinoline-3-carbonitrile] | > 46.1 | 23.1 µM | – | – | – | IC50 (A431): 1.96 µg/mL (≈ 4.52 µM); IC50 (MDA-MB-435): 2.04 µg/mL (≈ 4.72 µM); IC50 (SK-BR3): > 5 µg/mL; IC50 (SW620): > 5 µg/mL; IC50 (3T3/c-erbb2): > 5 µg/mL; IC50 (3T3): > 5 µg/mL
CCOc1cc2ncc(C#N)c(Nc3ccc4c(=O)[nH][nH]c(=O)c4c3)c2cc1OCC [Example 107, 4-(1,4-Dioxo-1,2,3,4-tetrahydro-phthalazin-6-ylamino)-6,7-diethoxy-quinoline-3-carbonitrile] | > 47.9 | > 71.9 µM | – | – | – | IC50 (A431): > 5 µg/mL; IC50 (MDA-MB-435): > 5 µg/mL; IC50 (SK-BR3): > 5 µg/mL; IC50 (SW620): > 5 µg/mL; IC50 (3T3/c-erbb2): > 5 µg/mL; IC50 (3T3): > 5 µg/mL
COc1cc2ncc(C#N)c(Nc3ccc4c(C)cc(=O)[nH]c4c3)c2cc1OC [Example 129, 6,7-Dimethoxy-4-(4-methyl-2-oxo-1,2-dihydro-quinolin-7-ylamino)-quinoline-3-carbonitrile] | > 25.9 | > 25.9 µM | 6.7 | > 1 | > 100 µM | –
COc1cc2ncc(C#N)c(Nc3ccc4sc(C)nc4c3)c2cc1OC [Example 130, 6,7-Dimethoxy-4-(2-methyl-benzothiazol-5-ylamino)-quinoline-3-carbonitrile] | > 26.6 | > 26.6 µM | 5 | > 1 | > 100 µM | –
COc1cc2ncc(C#N)c(Nc3ccc4[nH]c(=O)sc4c3)c2cc1OC [Example 131, 6,7-Dimethoxy-4-(2-oxo-2,3-dihydro-benzothiazol-6-ylamino)-quinoline-3-carbonitrile] | > 26.4 | > 26.4 µM | 0 | > 1 | > 100 µM | –
COc1cc2ncc(C#N)c(Nc3cccc4ncccc34)c2cc1OC [Example 132, 6,7-Dimethoxy-4-(quinolin-5-ylamino)-quinoline-3-carbonitrile] | > 28.1 | > 28.1 µM | 0 | > 1 | 90 µM | –
COc1cc2ncc(C#N)c(Nc3cccc4cnccc34)c2cc1OC [Example 133, 4-(Isoquinolin-5-ylamino)-6,7-dimethoxy-quinoline-3-carbonitrile] | > 28.1 | > 28.1 µM | 0 | > 1 | 90 µM | –
COc1cc2ncc(C#N)c(Nc3cccc4cccnc34)c2cc1OC [Example 134, 6,7-Dimethoxy-4-(quinolin-8-ylamino)-quinoline-3-carbonitrile] | > 28.1 | > 28.1 µM | 35 | > 1 | > 100 µM | –
COc1cc2ncc(C#N)c(Nc3ccc(O)c4ncccc34)c2cc1OC [Example 135, 4-(8-Hydroxy-quinolin-5-ylamino)-6,7-dimethoxy-quinoline-3-carbonitrile] | 0.537 | 26.9 µM | 0 | > 1 | > 100 µM | –
COc1ccc2ncc(C#N)c(Nc3ccc4cn[nH]c4c3)c2c1 [Example 141, 4-(1H -Indazol 6-ylamino)-6-methoxy-quinoline-3-carbonitrile] | > 31.7 | 63.4 µM | 5.5 | > 1 | 1.1 µM and 2 µM | –
COc1ccc2ncc(C#N)c(Nc3ccc4nn[nH]c4c3)c2c1 [Example 142, 4-(3H -Benzotriazol-5-ylamino)-6-methoxy-quinoline-3-carbonitrile] | > 31.6 | 94.8 µM | 24 | > 1 | 30 µM | –
COc1ccc2c(Nc3ccc4nn[nH]c4c3)c(C#N)cnc2c1 [Example 144, 4-(3H -benzotriazol-5-ylamino)-7-methoxy-quinoline-3-carbinitile] | > 31.6 | > 94.8 µM and 94.8 µM | 14 | > 1 | – | IC50 ([4]; read-out: Mek-Erk µM): > 100 µM
COc1cccc2c(Nc3ccc4cn[nH]c4c3)c(C#N)cnc12 [Example 148, 4-(1H -Indazol-6-ylamino)-8-methoxy-quinoline-3-carbonitrile] | > 63.4 | > 95.1 µM | 11 | > 1 | > 100 µM | –
COc1cccc2c(Nc3ccc4nn[nH]c4c3)c(C#N)cnc12 [Example 149, 4-(3H -benzotriazol-5-ylamino)-8-methoxy-quinoline-3-carbonitrile] | > 31.6 | > 94.8 µM | 9 | > 1 | – | IC50 ([4]; read-out: Mek-Erk µM): > 100 µM
COc1cc2ncc(C#N)c(Nc3ccc4ncccc4c3)c2cc1OC [Example 153, 6,7-Dimethoxy-4-(quinoline-6-ylamino)-quinoline-3-carbonitrile] | > 28.1 | > 28.1 µM | 14 | > 1 | > 100 µM | –
COc1cc2c(Nc3ccc4nn[nH]c4c3)c(C#N)cnc2c(OC)c1OC [Example 156, 4-(3H-Benzotriazol-5-ylamino)-6,7,8-Trimethoxy-quinoline-3-carbonitrile] | > 26.6 | > 79.7 µM | 34 | > 1 | – | IC50 ([4]; read-out: Mek-Erk µM): 35 µM

Reference: EP1117659B1, “SUBSTITUTED 3-CYANOQUINOLINES AS PROTEIN TYROSINE KINASES INHIBITORS” (Wyeth Holdings Corporation, priority 1998, dated 2000)
